The source of these data is patent US8871753B2, “Macrocyclic compounds and their use as kinase inhibitors” (Incyte Corporation, priority 2008, dated 2014).

Format in all cases: biochemical
The target in assay [1] is T1, human JAK2 (a.a. 828-1132) (Homo sapiens, UniProt O60674).
T1 construct: JAK2 (a.a. 828-1132); His tag (N); made in house; host or cells: insect cells (baculovirus)
Nature of the assay: In vitro JAK kinase assay (HTRF, phosphorylation of a biotinylated peptide), JAK2. A digest of the protocol: (§1)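 Kinase activity was measured as phosphorylation of a biotinylated peptide, with ATP at 90 μM for JAK1, 30 μM for JAK2 and 3 μM for JAK3. Reactions ran 1 hr at room temperature, were stopped with EDTA plus SA-APC and Eu-Py20, and were read by HTRF after 40 minutes of antibody binding.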

In a further assay the target is TYK2 (Homo sapiens, UniProt P29597). Nature of the assay: TYK2 kinase inhibition (Table A1).
TYK2, sequence (P29597 whole entry): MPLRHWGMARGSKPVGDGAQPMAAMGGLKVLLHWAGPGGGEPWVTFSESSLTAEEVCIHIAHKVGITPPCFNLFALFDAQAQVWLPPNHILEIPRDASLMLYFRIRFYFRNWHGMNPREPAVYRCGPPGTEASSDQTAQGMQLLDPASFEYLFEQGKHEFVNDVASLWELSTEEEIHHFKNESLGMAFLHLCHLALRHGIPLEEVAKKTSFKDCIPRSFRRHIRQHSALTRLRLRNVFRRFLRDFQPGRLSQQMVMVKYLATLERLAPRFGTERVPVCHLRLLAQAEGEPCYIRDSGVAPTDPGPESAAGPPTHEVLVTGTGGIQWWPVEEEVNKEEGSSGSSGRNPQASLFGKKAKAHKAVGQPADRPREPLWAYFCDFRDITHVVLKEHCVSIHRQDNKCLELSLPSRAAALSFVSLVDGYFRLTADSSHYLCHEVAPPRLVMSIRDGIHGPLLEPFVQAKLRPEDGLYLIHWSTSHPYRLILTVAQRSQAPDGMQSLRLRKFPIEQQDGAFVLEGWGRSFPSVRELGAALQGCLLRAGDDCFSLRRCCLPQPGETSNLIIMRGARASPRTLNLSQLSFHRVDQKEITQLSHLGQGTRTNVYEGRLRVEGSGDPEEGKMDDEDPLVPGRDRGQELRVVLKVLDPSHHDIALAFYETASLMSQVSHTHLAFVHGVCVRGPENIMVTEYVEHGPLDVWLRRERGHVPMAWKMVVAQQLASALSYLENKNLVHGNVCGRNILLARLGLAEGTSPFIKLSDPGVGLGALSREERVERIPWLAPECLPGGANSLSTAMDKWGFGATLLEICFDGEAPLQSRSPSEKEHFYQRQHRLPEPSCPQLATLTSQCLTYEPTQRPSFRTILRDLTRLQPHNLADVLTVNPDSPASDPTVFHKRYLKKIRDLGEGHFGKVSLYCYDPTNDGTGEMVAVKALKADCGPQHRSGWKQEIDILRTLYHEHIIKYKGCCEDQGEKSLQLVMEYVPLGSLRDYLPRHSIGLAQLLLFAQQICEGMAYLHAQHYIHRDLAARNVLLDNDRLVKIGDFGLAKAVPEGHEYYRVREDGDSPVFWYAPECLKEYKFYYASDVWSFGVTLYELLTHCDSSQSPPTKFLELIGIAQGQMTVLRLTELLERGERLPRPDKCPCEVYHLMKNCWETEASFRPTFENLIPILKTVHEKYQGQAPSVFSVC
Assay [2] deals with T2, human JAK3 (a.a. 781-1124) (Homo sapiens, UniProt P52333).
T2 construct: JAK3 (a.a. 781-1124); His tag (N); made in house; host or cells: insect cells (baculovirus)
T2 sequence (P52333 781-1124): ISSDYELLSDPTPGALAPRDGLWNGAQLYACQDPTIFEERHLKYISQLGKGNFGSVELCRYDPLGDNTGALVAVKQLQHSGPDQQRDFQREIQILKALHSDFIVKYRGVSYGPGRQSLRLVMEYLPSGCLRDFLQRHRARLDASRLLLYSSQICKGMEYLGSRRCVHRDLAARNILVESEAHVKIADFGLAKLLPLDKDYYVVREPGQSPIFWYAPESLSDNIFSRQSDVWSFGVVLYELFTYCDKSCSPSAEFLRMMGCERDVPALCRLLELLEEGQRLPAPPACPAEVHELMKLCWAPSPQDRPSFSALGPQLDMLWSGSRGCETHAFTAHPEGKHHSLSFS
In words: In vitro JAK kinase assay (HTRF, phosphorylation of a biotinylated peptide), JAK3. A digest of the protocol:
as §1

Assay [3] addresses T3, Recombinant Human Anaplastic Lymphoma Kinase (Homo sapiens, UniProt Q9UM73).
T3 construct: purchased Invitrogen, Carlsbad, Calif
In words: ALK HTRF kinase assay. A digest of the protocol: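 IC50 was obtained from a logistic fit of signal versus log inhibitor concentration, using pre- and post-transition baselines and a Hill slope. The signal reported tyrosine phosphorylation of a biotinylated peptide by recombinant human kinase, detected as Eu-to-APC energy transfer.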

In assay [4] the target is T4, human JAK1 (a.a. 837-1142) (Homo sapiens, UniProt P23458).
T4 construct: human JAK1 (a.a. 837-1142); His tag (N); made in house; host or cells: insect cells (baculovirus)
T4 sequence (P23458 849-1154): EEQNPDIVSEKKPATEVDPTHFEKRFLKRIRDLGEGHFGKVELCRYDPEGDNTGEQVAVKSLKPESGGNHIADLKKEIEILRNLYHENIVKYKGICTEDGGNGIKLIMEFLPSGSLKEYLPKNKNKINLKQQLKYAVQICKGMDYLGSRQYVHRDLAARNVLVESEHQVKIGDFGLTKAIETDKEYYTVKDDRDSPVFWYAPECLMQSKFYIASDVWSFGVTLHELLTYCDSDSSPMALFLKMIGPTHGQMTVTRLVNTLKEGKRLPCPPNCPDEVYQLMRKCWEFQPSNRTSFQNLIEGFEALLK
Nature of the assay: In vitro JAK kinase assay (HTRF, phosphorylation of a biotinylated peptide), JAK1. The note with it: read-out: JAK1 IC50. Put shortly: as §1

[5] abbreviates: method AA1 (30 μM ATP) or AA2 (1000 μM ATP), not stated per value.
The mark [6] stands for this setting: method AA1 (3 μM ATP) or AA2 (1000 μM ATP), not stated per value.
Where [7] appears, read: compound at 500 nM or 1 mM, 90 μM ATP.
The mark [8] stands for this setting: method AA1 (90 μM ATP) or AA2 (1000 μM ATP), not stated per value.
Setting [9] is: compound at a concentration of 500 nM or 1 mM (not specified), cells shown as percentage.

The structures appear in SMILES notation. Structures can show the parent of a compound that is named as a salt. Where two headings read alike, the source gives them in different places.

T3 sequence (Q9UM73 19-1620): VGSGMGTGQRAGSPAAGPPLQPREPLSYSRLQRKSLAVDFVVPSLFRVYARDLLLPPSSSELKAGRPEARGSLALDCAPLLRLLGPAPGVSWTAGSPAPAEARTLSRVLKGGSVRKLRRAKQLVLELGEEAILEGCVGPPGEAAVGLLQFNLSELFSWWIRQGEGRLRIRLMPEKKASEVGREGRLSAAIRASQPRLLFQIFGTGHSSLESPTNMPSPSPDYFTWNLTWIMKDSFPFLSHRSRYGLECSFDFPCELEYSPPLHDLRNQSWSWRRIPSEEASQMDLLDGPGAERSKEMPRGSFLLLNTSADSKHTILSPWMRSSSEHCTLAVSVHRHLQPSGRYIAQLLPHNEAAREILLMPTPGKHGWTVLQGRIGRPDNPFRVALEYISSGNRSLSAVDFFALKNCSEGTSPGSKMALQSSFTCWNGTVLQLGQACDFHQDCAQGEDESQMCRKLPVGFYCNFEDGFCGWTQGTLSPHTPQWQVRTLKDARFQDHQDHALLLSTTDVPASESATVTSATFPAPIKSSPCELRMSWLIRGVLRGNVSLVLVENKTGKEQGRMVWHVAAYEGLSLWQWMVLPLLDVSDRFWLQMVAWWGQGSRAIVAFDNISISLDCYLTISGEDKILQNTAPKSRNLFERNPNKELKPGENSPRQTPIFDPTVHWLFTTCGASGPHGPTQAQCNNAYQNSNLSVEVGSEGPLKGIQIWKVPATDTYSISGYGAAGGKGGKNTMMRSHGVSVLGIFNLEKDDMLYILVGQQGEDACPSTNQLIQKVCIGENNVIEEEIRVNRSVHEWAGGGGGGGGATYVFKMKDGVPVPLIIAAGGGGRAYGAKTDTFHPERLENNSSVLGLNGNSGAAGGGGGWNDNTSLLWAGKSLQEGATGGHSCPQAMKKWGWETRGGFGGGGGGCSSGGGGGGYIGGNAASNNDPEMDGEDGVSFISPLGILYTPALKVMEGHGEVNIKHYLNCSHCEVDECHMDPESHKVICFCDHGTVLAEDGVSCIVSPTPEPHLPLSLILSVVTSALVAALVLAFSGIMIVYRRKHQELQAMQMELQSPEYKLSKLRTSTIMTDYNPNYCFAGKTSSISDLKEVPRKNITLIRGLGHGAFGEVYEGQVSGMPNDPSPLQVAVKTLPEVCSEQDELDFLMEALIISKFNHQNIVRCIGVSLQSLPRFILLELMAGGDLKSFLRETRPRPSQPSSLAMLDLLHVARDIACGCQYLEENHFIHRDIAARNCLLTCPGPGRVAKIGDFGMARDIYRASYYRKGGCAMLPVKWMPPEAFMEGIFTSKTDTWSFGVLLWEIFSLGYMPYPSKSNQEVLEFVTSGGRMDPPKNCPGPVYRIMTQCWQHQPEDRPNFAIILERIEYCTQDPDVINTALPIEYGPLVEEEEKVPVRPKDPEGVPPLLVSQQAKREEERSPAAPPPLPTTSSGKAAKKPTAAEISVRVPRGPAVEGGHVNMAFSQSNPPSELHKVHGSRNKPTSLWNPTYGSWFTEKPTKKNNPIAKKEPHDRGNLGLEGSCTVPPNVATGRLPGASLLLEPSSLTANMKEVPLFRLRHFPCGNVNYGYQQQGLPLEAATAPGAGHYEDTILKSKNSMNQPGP
T1 sequence (O60674 828-1132): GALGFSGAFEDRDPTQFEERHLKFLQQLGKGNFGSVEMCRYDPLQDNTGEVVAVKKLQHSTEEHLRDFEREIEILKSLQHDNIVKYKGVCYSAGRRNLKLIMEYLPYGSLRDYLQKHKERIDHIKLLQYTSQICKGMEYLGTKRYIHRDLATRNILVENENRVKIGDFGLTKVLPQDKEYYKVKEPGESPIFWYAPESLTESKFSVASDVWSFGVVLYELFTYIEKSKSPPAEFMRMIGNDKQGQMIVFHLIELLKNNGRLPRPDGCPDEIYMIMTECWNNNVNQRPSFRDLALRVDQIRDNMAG

By IC50 is commonly meant the concentration at which inhibition is half-maximal. `CC(=O)N1CCC(CC(=O)Nc2ccc3cc2CCc2cncc(c2)Nc2ncc(Cl)c(n2)N3)C1` (stereo not drawn) [Example A94, 2-(1-Acetylpyrrolidin-3-yl)-N-[6-chloro-2,4,8,18,22-pentaazatetracyclo[14.3.1.1(3,7).1(9,13)]docosa-1(20),3(22),4,6,9(21),10,12,16,18-nonaen-12-yl]acetamide bis(trifluoroacetate)]: the concentration for half-maximal inhibition (IC50) turned out to be 17 nM in assay [1] (setting [5]), 32 nM on TYK2, 86 nM in assay [2] (setting [6]) and 21 nM in assay [4] (setting [8]). Further, the “ALK % of inhibition at a concentration of 500 nM or 1 mM” value (“ALK % of inhibition” for short) in assay [3] (setting [7]) is 26%.

`Cc1cccc(S(=O)(=O)Nc2ccc3cc2CCc2cccc(c2)Nc2ncc(Cl)c(n2)N3)c1` [Example B148, N-[6-Chloro-2,4,8,22-tetraazatetracyclo[14.3.1.1(3,7).1(9,13)]docosa-1(20), 3(22),4,6,9(21),10,12,16,18-nonaen-12-yl]-3-methylbenzenesulfonamide trifluoroacetate]: the half-inhibitory concentration (IC50) in assay [1] (Table B1) stood at 0.13 nM; at TYK2 (Table B1) it was 0.53 nM; in assay [2] (Table B1) it was 1.1 nM; in assay [3] (Table B1, cells without percent sign), 150 nM; in assay [4] (Table B1), 0.49 nM.

For the molecule `O=C(Nc1ccc2cc1CCc1cccc(c1)Nc1ncc(Cl)c(n1)N2)C1CCN(C(=S)Nc2ccccc2)CC1` [Example A43, 1-(Anilinocarbonothioyl)-N-[6-chloro-2,4,8,22-tetraazatetracyclo[14.3.1.1(3,7).1(9,13)]docosa-1(20),3(22),4,6,9(21),10,12,16,18-nonaen-12-yl]piperidine-4-carboxamide trifluoroacetate], the IC50 in assay [1] (setting [5]) was found to be 4.8 nM; against TYK2, 48 nM; in assay [2] (setting [6]), 36 nM; in assay [4] (setting [8]), 1 nM. In addition, the “ALK % of inhibition” value in assay [3] (setting [7]) was found to be 32%.

On to `Cn1c(NC(=O)c2cc3cc(c2)OCCSc2cccc(c2)Nc2nc(ncc2Cl)N3)nc2ccccc21` [Example D55, 6-Chloro-N-(1-methyl-1H-benzimidazol-2-yl)-17-oxa-14-thia-2,4,8,24-tetraazatetracyclo[16.3.1.1(3,7).1(9,13)]tetracosa-1(22),3(24),4,6,9(23),10,12,18,20-nonaene-20-carboxamide bis(trifluoroacetate)], for which the IC50 in assay [1] (Table D1) is 40 nM; against TYK2 (Table D1), 88 nM; in assay [2] (Table D1) it was 129 nM; in assay [3] (Table D1, 90 μM ATP), more than 10000 nM; in assay [4] (Table D1), 56 nM.

Regarding `O=C(Nc1ccc2cc1CCc1cncc(c1)Nc1ncc(Cl)c(n1)N2)N1CCN(c2ccccc2F)CC1` [Example B295, N-[6-Chloro-2,4,8,18,22-pentaazatetracyclo[14.3.1.1(3,7).1(9,13)]docosa-1(20),3(22),4,6,9(21),10,12,16,18-nonaen-12-yl]-4-(2-fluorophenyl)piperazine-1-carboxamide tris(trifluoroacetate)], the IC50 in assay [1] (Table B1) is 199 nM; against TYK2 (Table B1), 150 nM; in assay [2] (Table B1), more than 200 nM; in assay [4] (Table B1), 30 nM. Further, in assay [3] (setting [9]), the “ALK % of inhibition” value is 50%.

Regarding `CNC(=O)N1CC[C@H](NC(=O)Nc2ccc3cc2CCc2cccc(c2)Nc2ncc(Cl)c(n2)N3)C1` [Example B169, (3S)-3-[({[6-Chloro-2,4,8,22-tetraazatetracyclo[14.3.1.1(3,7).1(9,13)]docosa-1(20),3(22),4,6,9(21),10,12,16,18-nonaen-12-yl]amino}carbonyl)amino]-N-methylpyrrolidine-1-carboxamide Trifluoracetate], the 50% inhibitory concentration (IC50) in assay [1] (Table B1) was determined as 12 nM; on TYK2 (Table B1), 26 nM; in assay [2] (Table B1), 47 nM; in assay [4] (Table B1) it was 3.3 nM. The “ALK % of inhibition” value in assay [3] (setting [9]) was found to be 17%.
